We go through 30 molecules from publication PMC6792352, “Limited Chemical Structural Diversity Found to Modulate Thyroid Hormone Receptor in the Tox21 Chemical Library” (Environmental Health Perspectives, 2019).

Where a name gives a salt, the structure may show the parent alone. Read-outs that look alike come from different tables or passages of the source. Starred links: 1 amine or outer side, 2 acyl side, 3 side chain; linkers in the order of their positions; H or OH if unused. Positions of bridges follow the written chain, without caps; N, C: chain ends. Non-standard residues stand in square brackets, D forms with d. Residues, ends and D or L forms follow the SMILES beside them. Chains are numbered I, II in the order given. Actinocin(9to1) = Cc1c2oc3c(C)ccc(C(=O)[*:1])c3nc-2c(C(=O)[*:2])c(N)c1=O; NMeV = CN[C@H](C(=O)O)C(C)C; Sar = CNCC(=O)O

The data set has as its system GH3-TRE-Luc cell line. Conditions: read-out: AC50 (uM) modified / 1000, viability, 1 nM T3 present, 24 h.

Consider `CCCCNC(=O)OCC#CI` [3-Iodo-2-propynyl-N-butylcarbamate], for which the CC50 was 15.9 µM (Tox21_110001=Tox21_201864) and 4.22 µM (Tox21_110001=Tox21_301117).
In the case of `CC(=O)Nc1ccc(C(=O)CCl)cc1` [4'-(Chloroacetyl)acetanilide], the CC50 (Tox21_110001=Tox21_302954) came out at 16.5 µM.
In the case of `Oc1ccc(OCc2ccccc2)cc1` [4-(Benzyloxyl)phenol], the CC50 was found to be 4.58 µM (Tox21_110001=Tox21_110396) and 10.2 µM (Tox21_110001=Tox21_201147).
As for `CC/C(=C(\c1ccc(O)cc1)c1ccc(OCCN(C)C)cc1)c1ccccc1` [4-Hydroxytamoxifen], the CC50 (Tox21_110001=Tox21_303657) amounted to 2.62 µM.
For the molecule `O=[N+]([O-])c1ccc(O)cc1` [4-Nitrophenol], where the note is “Tox21_110001=Tox21_300117”, the CC50 turned out to be 67.6 µM.
On to `CCCCCCCCCc1ccc(O)cc1` [4-Nonylphenol, branched], for which the CC50 by setting is: (Tox21_110001=Tox21_111040) 28.7 µM; (Tox21_110001=Tox21_201528) 23.6 µM; (Tox21_110001=Tox21_300576) 22.3 µM.
For `Nc1ncn([C@@H]2O[C@H](CO)[C@@H](O)[C@H]2O)c(=O)n1` [5-Azacytidine], the CC50 reads like this: (Tox21_110001=Tox21_111032) 5.77 µM; (Tox21_110001=Tox21_302985) 19.3 µM.
For the molecule `O=c1[nH]cc(F)c(=O)[nH]1` [5-Fluorouracil], the CC50 amounted to 16.7 µM (Tox21_110001=Tox21_202335) and 30.2 µM (Tox21_110001=Tox21_300112).
As to `Oc1cccc2cccnc12` [8-Hydroxyquinoline sulfate], the CC50 (Tox21_110001=Tox21_303537) was 1.43 µM.
Regarding `Oc1cccc2cccnc12` [8-Hydroxyquinoline], the CC50 reads like this: (Tox21_110001=Tox21_113083) 3 µM; (Tox21_110001=Tox21_202986) 3.28 µM; (Tox21_110001=Tox21_400006) 3.8 µM.
For `Oc1cccc2cccnc12` [8-Quinolinol salicylic acid (1:1)], the CC50 (Tox21_110001=Tox21_110005) stood at 10.3 µM.
Turning to `CC/C(=C(\c1ccc(O)cc1)c1ccc(OCCN(C)C)cc1)c1ccccc1` [(Z)-4-Hydroxytamoxifen], the CC50 (Tox21_110001=Tox21_200943) came out at 5.77 µM.
Regarding `Cc1c2oc3c(C)ccc(C(=O)N[C@@H]4C(=O)N[C@H](C(C)C)C(=O)N5CCC[C@H]5C(=O)N(C)CC(=O)N(C)[C@@H](C(C)C)C(=O)O[C@@H]4C)c3nc-2c(C(=O)N[C@@H]2C(=O)N[C@H](C(C)C)C(=O)N3CCC[C@H]3C(=O)N(C)CC(=O)N(C)[C@@H](C(C)C)C(=O)O[C@@H]2C)c(N)c1=O` [Actinomycin D] (I: T[dV]P[Sar][NMeV] / II: T[dV]P[Sar][NMeV]; ester I:1-I:C, II:1-II:C; linker I:N-II:N via Actinocin(9to1)), the CC50 (Tox21_110001=Tox21_111997) came out at 0.00788 µM and the CC50 (Tox21_110001=Tox21_202482) was 0.000903 µM.
For the molecule `COc1cccc2c1C(=O)c1c(O)c3c(c(O)c1C2=O)C[C@@](O)(C(=O)CO)C[C@@H]3O[C@H]1C[C@H](N)[C@H](O)[C@H](C)O1` [Adriamycin hydrochloride], the CC50 by setting is: (Tox21_110001=Tox21_112061) 1.54 µM; (Tox21_110001=Tox21_202483) 0.253 µM.
`CCCSc1ccc2nc(NC(=O)OC)[nH]c2c1` [Albendazole]: where the note is “Tox21_110001=Tox21_110659”, the CC50 is 0.271 µM.
Regarding `O=S(=O)(O)c1ccc2c(N=Nc3ccc(S(=O)(=O)O)c4ccccc34)c(O)c(S(=O)(=O)O)cc2c1` [Amaranth], the CC50 (Tox21_110001=Tox21_112280) came to 19.3 µM.
`CN(C)CCC=C1c2ccccc2CCc2ccccc21` [Amitriptyline hydrochloride]: the CC50 (Tox21_110001=Tox21_113122) stood at 18.1 µM, the CC50 (Tox21_110001=Tox21_201278) was found to be 8.86 µM and the CC50 (Tox21_110001=Tox21_303612) was 13.7 µM.
On to `O=C(O)CS` [Ammonium thioglycolate], for which the CC50 (Tox21_110001=Tox21_202751) was determined as 58.7 µM.
With `Clc1ccc2c(c1)C(N1CCNCC1)=Nc1ccccc1O2` [Amoxapine], where the note is “Tox21_110001=Tox21_302352”, the CC50 is 20.3 µM.
Consider `CN1CCc2cccc3c2[C@H]1Cc1ccc(O)c(O)c1-3` [Apomorphine], for which the CC50 (Tox21_110001=Tox21_110967) was 27.3 µM.
For the molecule `COc1ccc(CCN2CCC(Nc3nc4ccccc4n3Cc3ccc(F)cc3)CC2)cc1` [Astemizole], the CC50 runs as follows: (Tox21_110001=Tox21_110680) 4.42 µM; (Tox21_110001=Tox21_200095) 0.889 µM.
`CCCCCCCCCCCC[N+](C)(C)Cc1ccccc1` [Benzyldodecyldimethylammonium bromide]: the CC50 (Tox21_110001=Tox21_113091) was found to be 5.39 µM.
As for `Oc1c(Cl)cc(Cl)cc1Sc1cc(Cl)cc(Cl)c1O` [Bithionol], the CC50 (Tox21_110001=Tox21_110832) worked out at 12.4 µM, the CC50 (Tox21_110001=Tox21_200384) stood at 6.76 µM and the CC50 (Tox21_110001=Tox21_302919) was found to be 20.3 µM.
With `Cc1c(N)nc([C@H](CC(N)=O)NC[C@H](N)C(N)=O)nc1C(=O)N[C@H](C(=O)N[C@H](C)[C@@H](O)[C@H](C)C(=O)N[C@H](C(=O)NCCc1nc(-c2nc(C(=O)NCCC[S+](C)C)cs2)cs1)[C@@H](C)O)[C@@H](O[C@@H]1O[C@@H](CO)[C@@H](O)[C@H](O)[C@@H]1O[C@H]1O[C@H](CO)[C@@H](O)[C@H](OC(N)=O)[C@@H]1O)c1c[nH]cn1` [Bleomycin sulfate], the CC50 (Tox21_110001=Tox21_113599) was 1.85 µM.
On to `COc1ccc(C(=O)/C(Br)=C\C(=O)O)cc1` [Bromebric acid], for which the CC50 (Tox21_110001=Tox21_111900) was determined as 31.6 µM.
Take `CN(Cc1ccc(C(C)(C)C)cc1)Cc1cccc2ccccc12` [Butenafine hydrochloride]: the CC50 (Tox21_110001=Tox21_112918) was found to be 28.6 µM.
Regarding `Cc1cc(C(C)(C)C)c(O)c(C(C)(C)C)c1` [Butylated hydroxytoluene], the CC50 is, setting by setting: (Tox21_110001=Tox21_113537) 42.9 µM; (Tox21_110001=Tox21_201093) 76.4 µM.
In the case of `CC1=CC(=C(c2ccc(N)cc2)c2ccc(N)cc2)C=CC1=N` [C.I. Basic Violet 14], the CC50 is, setting by setting: (Tox21_110001=Tox21_112288) 15.1 µM; (Tox21_110001=Tox21_202790) 5.54 µM.
For `Cc1cc(-c2ccc(/N=N/c3ccc4c(S(=O)(=O)O)cc(S(=O)(=O)O)c(N)c4c3O)c(C)c2)ccc1/N=N/c1ccc2c(S(=O)(=O)O)cc(S(=O)(=O)O)c(N)c2c1O` [C.I. Direct Blue 53], for the setting “Tox21_110001=Tox21_113237”, the CC50 was 21.8 µM.
In the case of `Cn1c(=O)c2c(ncn2C)n(C)c1=O` [Caffeine], the CC50 (Tox21_110001=Tox21_201685) was 41.2 µM.
